According to BindingDB's records for doi:10.1016/j.bmcl.2007.06.058 (Mahidol University, 2007):

Test: Inhibition of rhFGF2-induced cellular proliferation of HUVEC

| IC50 [µM] | SMILES |
| --- | --- |
| 18.2 | COc1cc(OC)cc(-c2ccc3c(c2)NC(=O)/C3=C\c2[nH]c(C)c(CCC(=O)O)c2C)c1 [(Z)-3-(5-((6-(3,5-dimethoxyphenyl)-2-oxoindolin-3-ylidene)methyl)-2,4-dimethyl-1H-pyrrol-3-yl)propanoic acid] |
| 17.9 | COc1cccc(-c2ccc3c(c2)NC(=O)/C3=C\c2[nH]c(C)c(CCC(=O)O)c2C)c1 [3-(5-{[(3Z)-6-(3-methoxyphenyl)-2-oxo-2,3-dihydro-1H-indol-3-ylidene]methyl}-2,4-dimethyl-1H-pyrrol-3-yl)propanoic acid] |
| > 50 | Cc1[nH]c(/C=C2\C(=O)Nc3cc(-c4ccccc4)ccc32)c(C)c1CCC(=O)O |
